Like-named read-outs stand apart in the source and are kept apart here.
Tests used:
[1] = system: MOLT-4 (the line of human ALL leukemia); test: MTT viability test on MOLT-4 cells; type: cell-based; settings: for time after which viability of MOLT-4 neoplastic cells was reduced: bioavailable dose (1×), MTT; for impact on viability of MOLT-4 cells: even at doses attainable exclusively in vitro (2×)
Protocol: (§1) 1. Viability Test Comprising the Use of a Test Cell Line (Cultures in the Presence of Individual Phytochemicals or their Mix) and the Control Line
(§2) The test is based on an assessment of the enzymatic activity of mitochondria using MTT, 3-(4,5-Dimethylthiazol-2-yl)-2,5-diphenyltetrazolium) bromide. Live and metabolically active cells reduce MTT to formazan crystals. In the test, a 96-well plate was seeded with […] per well in the volume of 50 μl of standard culture medium, followed by the addition of serial dilutions of the analysed compounds in the volume of 50 μl of the culture medium to obtain the final volume of 100 μl. An identical quantity of the solvent without the analysed phytocompounds was added to the control wells. The phytocompounds were stored dissolved in 100% DMSO, and therefore each dilution and the culture media added for control were supplemented with DMSO up to the non-toxic final concentration of 0.05%. The viability of the cells was assessed after a specific incubation time (24-, 48-, or 72-hours) by adding 20 μl of the yellow MTT solution to each well, and the colorimetric conversion of MTT into purple formazan crystals was assessed after 2-3 hours of incubation by dissolving the crystals with acidic isopropanol and taking a spectrophotometric measurement at the wavelength of 570 nm.
The measurements of cell viability with the application of this assay were performed on the following lines: MOLT-4 (the line of human ALL leukemia, a standard cell line used to assess the effects of pharmaceutical compounds on this type of leukemias) and BJ (human foreskin fibroblasts, primary cells grown in a short-term culture).

[2] = defines dose 1×; cited from earlier work
[3] = system: BJ (human foreskin fibroblasts); test: MTT viability test on BJ control cells; type: cell-based; settings: 0.5×, 1×, 2×; 24 and 72 hours (FIG. 2)
Protocol: as §1
as §2, with “nm. […]” for “nm.”

## COc1cc(/C=C/C(=O)CC(=O)/C=C/c2ccc(O)c(OC)c2)ccc1O [curcumin]
[1]
  cytotoxicity to MOLT-4 cells: relatively highly cytotoxic
[1]; single compound
  time after which viability of MOLT-4 neoplastic cells was reduced: 72 h
[2]
  maximum level of bioavailability of the compound in the blood: 2.25 µg/mL

## O=c1c(-c2ccc(O)cc2)coc2cc(O)cc(O)c12 [genistein]
[1]; dose 0.5×
  time after which the biological effect (reduced MOLT-4 viability) was attained: 72 hours
[1]; single compound
  time after which viability of MOLT-4 neoplastic cells was reduced: 48 h
[1]; single compound, dose 2×
  cytotoxicity to MOLT-4 cells: relatively highly cytotoxic
[2]
  maximum level of bioavailability of the compound in the blood: 3 µg/mL
[3]
  viability of BJ cells: do not decrease the viability

## O=c1c(O)c(-c2ccc(O)c(O)c2)oc2cc(O)cc(O)c12 [quercetin]
[1]; single compound
  impact on viability of MOLT-4 cells: did not demonstrate any impact on the viability
[2]
  maximum level of bioavailability of the compound in the blood: 1.5 µg/mL

## Oc1ccc(C=Cc2cc(O)cc(O)c2)cc1 [resveratrol]
[1]; single compound
  impact on viability of MOLT-4 cells: did not demonstrate any impact on the viability
[2]
  maximum level of bioavailability of the compound in the blood: 0.5 µg/mL

Reference: patent US20240165074A1, “COMPOSITION OF THE PHYTOCOMPOUNDS INTENDED TO ENHANCE CYTOTOXIC ACTIVITY IN THE TREATMENT OF ACUTE LYMPHOBLASTIC LEUKEMIA” (GDANSKI UNIWERSYTET MEDYCZNY, priority 2021, published 2024)
